Experiments:
Type in all cases: in vivo
[1] = tested on: Oryza sativa; experiment: Paddy herbicidal activity test, phytotoxicity to transplanted rice; details: rice plants in the 2.0 leaf stage transplanted, 30 days, 30° C.
Experimental: (§1) Rice paddy soil was filled into a 1/10000 are pot followed by the addition of suitable amounts of water and chemical fertilizer, kneading, seeding with Echinochloa crus-galli, Monochoria vaginalis and Scirpus juncoides and maintaining in an irrigated state at a water depth of 3 cm.
(§2) Wettable powders of Target Compound (I) shown in Table 1 prepared in compliance with the preparation examples were diluted with a suitable amount of water, rice plants in the 2.0 leaf stage were transplanted during 3.5 leaf stage of Echinochloa crus-galli, and treated by dropping in chemical in the prescribed amount per 10 are using a pipette.
(§3) After treating for 30 days in a glass greenhouse at an average atmospheric temperature of 30° C., the herbicidal efficacy thereof was investigated.
(§4) Evaluation of herbicidal efficacy was carried out by comparing growth inhibition rate (%) with an untreated group, while evaluation of phytotoxicity was carried out by comparing growth inhibition rate (%) with the state of a complete eradication group, and were evaluated at 11 levels indicated below.

[2] = tested on: Chenopodium album; experiment: Weed foliar treatment test (Test Example 3); details: foliar spray at 1.0 to 2.0 leaf stage of Digitaria ciliaris, 3 weeks, 25° C.; for herbicidal efficacy, Chenopodium alubum: 5 g a.i./10a; for herbicidal efficacy, Chenopodium album: 10 g a.i./10a
Experimental: (§5) Soil was filled into a 1/6000 are pot followed by seeding with Digitaria ciliaris, Chenopodium album and Amaranthus retroflexus, covering with soil, and cultivating in a glass greenhouse at an average atmospheric temperature of 25° C.
(§6) Wettable powders of Target Compound (I) shown in Table 1 prepared in compliance with the preparation examples were diluted with water to the prescribed amount of chemical and uniformly sprayed onto the weeds using 150 liters of sprayed water per 10 are when Digitaria ciliaris had grown to the 1.0 to 2.0 leaf stage.
(§7) After treating for 3 weeks in a glass greenhouse at an average atmospheric temperature of 25° C., the herbicidal efficacy thereof was investigated.
(§8) Evaluation of herbicidal efficacy was carried out in the same manner as the above-mentioned Test Example 1.

[3] = tested on: Digitaria ciliaris; experiment: Weed foliar treatment test (Test Example 3); details: foliar spray at 1.0 to 2.0 leaf stage of Digitaria ciliaris, 3 weeks, 25° C.
Experimental: as §5, §6, §7, §8

[4] = tested on: Amaranthus retroflexus; experiment: Weed foliar treatment test (Test Example 3); details: foliar spray at 1.0 to 2.0 leaf stage of Digitaria ciliaris, 3 weeks, 25° C.
Experimental: as §5, §6, §7, §8

[5] = tested on: Scirpus juncoides; experiment: Paddy herbicidal activity test; details: irrigated paddy pot, 30 days, 30° C.
Experimental: as §1, §2, §3, §4

[6] = tested on: Monochoria vaginalis; experiment: Paddy herbicidal activity test; details: irrigated paddy pot, 30 days, 30° C.
Experimental: as §1, §2, §3, §4

[7] = tested on: Echinochloa crus-galli; experiment: Paddy herbicidal activity test; details: irrigated paddy pot, treated at 3.5 leaf stage of Echinochloa crus-galli, 30 days, 30° C.
Experimental: as §1, §2, §3, §4

[8] = tested on: Digitaria ciliaris; experiment: Weed foliar treatment test (Test Example 4, higher leaf stage); details: 10 g a.i./10a; foliar spray at 4.0 to 5.0 leaf stage of Digitaria ciliaris (plant height 10 cm to 15 cm); 20 days, 25° C.
Experimental: (§9) Field soil was filled into a 1/4500 are pot followed by seeding with Digitaria ciliaris and Galinsoga parviflora, covering with soil and cultivating in a glass greenhouse at an average atmospheric temperature of 25° C.
as §6, with “100” for “150”, “4.0” for “1.0”, “5.0” for “2.0”, “stage (plant height: 10 cm to 15 cm).” for “stage.”
(§10) After treating for 20 days in a glass greenhouse at an average atmospheric temperature of 25° C., the herbicidal efficacy thereof was investigated.
as §8

[9] = tested on: Galinsoga parviflora; experiment: as above; details: 10 g a.i./10a; foliar spray at 4.0 to 5.0 leaf stage of Digitaria ciliaris; 20 days, 25° C.
Experimental: as §9
as §6, with “100” for “150”, “4.0” for “1.0”, “5.0” for “2.0”, “stage (plant height: 10 cm to 15 cm).” for “stage.”
as §10, §8

[10] = tested on: Chenopodium album; experiment: Farming soil treatment test; details: soil surface spray prior to weed growth, 30 days, 30° C.
Experimental: (§11) Field soil was filled into a 1/6000 are pot followed by seeding with Digitaria ciliaris, Chenopodium album and Amaranthus retroflexus and covering with soil.
(§12) Wettable powders of compounds of formula (I) shown in Table 1 prepared in compliance with the preparation examples were diluted with water to the prescribed amount of chemical and uniformly sprayed onto each soil surface layer using 100 liters of sprayed water per 10 are prior to weed growth following seeding.
as §3
(§13) Evaluation of herbicidal efficacy was carried out in the same manner as the above-mentioned Test Example 1,

[11] = tested on: Digitaria ciliaris; experiment: Farming soil treatment test; details: soil surface spray prior to weed growth, 30 days, 30° C.
Experimental: as §11, §12, §3, §13

[12] = tested on: Amaranthus retroflexus; experiment: Farming soil treatment test; details: soil surface spray prior to weed growth, 30 days, 30° C.
Experimental: as §11, §12, §3, §13

SMILES | phytotoxicity, Oryza sativa ([1]; 1 g a.i./10a) | phytotoxicity, Oryza sativa ([1]; 5 g a.i./10a) | herbicidal efficacy, Chenopodium alubum [2] | herbicidal efficacy, Chenopodium album [2] | herbicidal efficacy, Digitaria ciliaris ([3]; 5 g a.i./10a) | herbicidal efficacy, Digitaria ciliaris ([3]; 10 g a.i./10a) | herbicidal efficacy, Amaranthus retroflexus ([4]; 5 g a.i./10a) | herbicidal efficacy, Amaranthus retroflexus ([4]; 10 g a.i./10a) | herbicidal efficacy, Scirpus juncoides ([5]; 1 g a.i./10a) | herbicidal efficacy, Scirpus juncoides ([5]; 5 g a.i./10a) | herbicidal efficacy, Monochoria vaginalis ([6]; 1 g a.i./10a) | herbicidal efficacy, Monochoria vaginalis ([6]; 5 g a.i./10a) | herbicidal efficacy, Echinochloa crus-galli ([7]; 1 g a.i./10a) | herbicidal efficacy, Echinochloa crus-galli ([7]; 5 g a.i./10a) | herbicidal efficacy, Digitaria ciliaris [8] | herbicidal efficacy, Galinsoga parviflora [9] | herbicidal efficacy, Chenopodium album ([10]; 5 g a.i./10a) | herbicidal efficacy, Chenopodium album ([10]; 10 g a.i./10a) | herbicidal efficacy, Digitaria ciliaris ([11]; 5 g a.i./10a) | herbicidal efficacy, Digitaria ciliaris ([11]; 10 g a.i./10a) | other results
N#Cc1cnn(-c2nn3c(c2Cl)CCCC3)c1NC(=O)CCCCl [Control agent 1.37, reference compound] | 2 (2: 20% to less than 30%) | 2 (2: 20% to less than 30%) | – | – | – | – | – | – | – | – | – | – | – | – | – | – | – | – | – | – | –
CCCC(=O)Nc1c(C#N)cnn1-c1nn2c(c1Cl)CCCC2 [Control agent 4.188, reference compound] | 2 (2: 20% to less than 30%) | 2 (2: 20% to less than 30%) | 3 (3: 30% to less than 40%) | 5 (5: 50% to less than 60%) | 1 (1: 10% to less than 20%) | 2 (2: 20% to less than 30%) | 4 (4: 40% to less than 50%) | 5 (5: 50% to less than 60%) | 0 (0 (exponent): 0% to less than 10% (growth inhibition rate)) | 1 (1: 10% to less than 20%) | 3 (3: 30% to less than 40%) | 3 (3: 30% to less than 40%) | 2 (2: 20% to less than 30%) | 3 (3: 30% to less than 40%) | 0 (0 (exponent): 0% to less than 10% (growth inhibition rate)) | 4 (4: 40% to less than 50%) | 2 (2: 20% to less than 30%) | 3 (3: 30% to less than 40%) | 0 (0 (exponent): 0% to less than 10% (growth inhibition rate)) | 1 (1: 10% to less than 20%) | herbicidal efficacy, Amaranthus retroflexus ([12]; 5 g a.i./10a): 4 (4: 40% to less than 50%); herbicidal efficacy, Amaranthus retroflexus ([12]; 10 g a.i./10a): 4 (4: 40% to less than 50%)
CCCCC(=O)Nc1c(C#N)cnn1-c1nn2c(c1Cl)CCCC2 [Control agent 4.191, reference compound] | 1 (1: 10% to less than 20%) | 1 (1: 10% to less than 20%) | 3 (3: 30% to less than 40%) | 2 (2: 20% to less than 30%) | 0 (0 (exponent): 0% to less than 10% (growth inhibition rate)) | 0 (0 (exponent): 0% to less than 10% (growth inhibition rate)) | 4 (4: 40% to less than 50%) | 5 (5: 50% to less than 60%) | 0 (0 (exponent): 0% to less than 10% (growth inhibition rate)) | 1 (1: 10% to less than 20%) | 2 (2: 20% to less than 30%) | 2 (2: 20% to less than 30%) | 2 (2: 20% to less than 30%) | 2 (2: 20% to less than 30%) | 0 (0 (exponent): 0% to less than 10% (growth inhibition rate)) | 3 (3: 30% to less than 40%) | 3 (3: 30% to less than 40%) | 3 (3: 30% to less than 40%) | 0 (0 (exponent): 0% to less than 10% (growth inhibition rate)) | 0 (0 (exponent): 0% to less than 10% (growth inhibition rate)) | herbicidal efficacy, Amaranthus retroflexus ([12]; 5 g a.i./10a): 2 (2: 20% to less than 30%); herbicidal efficacy, Amaranthus retroflexus ([12]; 10 g a.i./10a): 3 (3: 30% to less than 40%)
